Assay results as given in patent publication US11110158B2, “Prostate-associated antigens and vaccine-based immunotherapy regimens” (Pfizer Inc., priority 2012, dated 2021).

Tests used:
human PSMA = assay: IFNγ ELISPOT of PBMCs, PSMA DNA electroporation with or without CpG in Chinese cynomolgus macaques, human PSMA peptide pools; assay type: in vivo, cynomolgus macaque; settings: for animals that failed to produce high responses: intramuscular right after electroporation on day 0; for animals with modestly higher total response to the PSMA peptides: 3 days after DNA electroporation, cynomolgus
Procedure: (§1) Six groups of Chinese cynomolgus macaques, six (#1 to 6) per each test group, were immunized with a plasmid DNA encoding the human PSMA modified antigen (amino acids 15-750 of SEQ ID NO:1) delivered by electroporation. Briefly, all animals received bilateral intramuscular injections of 5 mg of plasmid DNA followed by electroporation (DNA EP) on day 0. Subsequently right after the electroporation, group 2 received bilateral intramuscular injections of 2 mg of CpG mixed with 1 mg Alum in proximity to the DNA injection sites. Group 3 and 4 received bilateral intramuscular injections of 2 mg of CpG delivered without alum in proximity to the DNA injection sites either on day 0 or day 3, respectively. Group 5 received 2 mg of bilateral intradermal injections of CpG delivered in proximity to the vaccine draining inguinal nodes on day 3. Group 6 received bilateral injections of 200 μg of CpG mixed with the DNA solution which was co-electroporated into the muscle on day 0.
Peripheral blood samples were collected from each animal fifteen days after the DNA immunization. Peripheral blood mononuclear cells (PBMCs) were isolated from the blood samples and were subjected to an IFNγELISPOT assay to measure the PSMA specific T cell responses. Briefly, 4e5 PBMCs from individual animals were plated per well with pools of PSMA specific peptides or nonspecific control peptides (human HER2 peptide pool) each at 2 ug/ml in IFNγELISPOT plates. The plates were incubated for 16 hrs at 37° C. and 5% CO2 and washed and developed after incubation as per manufacturer's instruction. The number of IFNγ spot forming cells (SFC) were counted by CTL reader. Each condition was performed in duplicates. […] ND indicates not determined.

rHER2 [1] = assay: IFNγ ELISPOT, rHER2 DNA vaccine with CpG7909 or anti-CD40 in BALB/c mice; assay type: in vivo, mouse; settings: FIG. 40; intradermal after PMED; CpG7909 50 g or anti-CD40 100 ug as printed; versus control antibodies; 7 days after PMED
Procedure: The effect of local administration of immune modulators on the magnitude and quality of antigen specific immune responses induced by a cancer was investigated in BALB/c mice, in which the immune response was assessed by measuring rHER2 specific T cell responses using the IFNγ ELISPOT assay or intracellular cytokine staining assay. Briefly, 4 to 6 female BALB/c mice per group as indicated were immunized with DNA plasmid expression constructs encoding rHER2 antigen sequences (SEQ ID NO:54) by PMED delivery system. […] Antigen specific T cell responses were measured by IFNγ […]ELISPOT or intracellular cytokine staining assay according to the procedure described below.
Briefly, each mouse per treatment group (n=4) was immunized with DNA plasmid expression constructs encoding rHER2 antigen sequences (SEQ ID NO:54) by PMED immediately followed by either 100 ug of control rat IgG monoclonal antibody (Bioxcell #BE0089: control mAb) or 50 g CpG7909 or 100 ug of anti-CD40 monoclonal antibody (Bioxcell #BE0016-2: a-CD40 mAb) as indicated. The antigen specific immune responses were measured by IFNγ ELISPOT assay from 5e5 splenocytes mixed with control or rHer-2 specific p66 peptides at 10 µg/ml concentration, 7 days after the PMED actuation. […]

[2] = cited from earlier work
rHER2 [3] = assay: Intracellular cytokine staining, rHER2 DNA vaccine with CpG 7909 or anti-CD40 in BALB/c mice; assay type: in vivo, rat; settings: FIGS. 41A, 41B; CpG 7909 intradermal after both PMED immunizations, versus PBS
Procedure: The effect of local administration of immune modulators on the magnitude and quality of antigen specific immune responses induced by a cancer was investigated in BALB/c mice, in which the immune response was assessed by measuring rHER2 specific T cell responses using the IFNγ ELISPOT assay or intracellular cytokine staining assay. Briefly, 4 to 6 female BALB/c mice per group as indicated were immunized with DNA plasmid expression constructs encoding rHER2 antigen sequences (SEQ ID NO:54) by PMED delivery system. The immune modulators, CpG7909 (PF-03512676) and anti-CD40 monoclonal agonistic antibody, were administered locally by intradermal injections in proximity to the vaccine draining inguinal lymph node subsequently after the PMED actuations. Antigen specific T cell responses were measured by IFNγ […]ELISPOT or intracellular cytokine staining assay according to the procedure described below.
The rHer-2 specific polyfunctional (multi-cytokine positive) T cell immune responses were measured from splenocytes or PBMCs isolated from individual animals by ICS assay. […] The total number of antigen specific single, double or triple cytokine positive T cells per total spleen of each animal is calculated by subtracting the rHer-2 specific responses to the irrelevant peptide HBV from the vaccine specific responses and normalized to the total number of splenocytes isolated from the spleen.

rhesus PSMA = assay: IFNγ ELISPOT of PBMCs, PSMA DNA electroporation with or without CpG in Chinese cynomolgus macaques, rhesus PSMA peptide pools; assay type: in vivo; settings: group 6: 200 μg CpG co-electroporated, compared to animals that did not receive CpG (group 1); P<0.05
Procedure: as §1
Peripheral blood samples were collected from each animal fifteen days after the DNA immunization. Peripheral blood mononuclear cells (PBMCs) were isolated from the blood samples and were subjected to an IFNγELISPOT assay to measure the PSMA specific T cell responses. […] The number of IFNγ spot forming cells (SFC) were counted by CTL reader. […] ND indicates not determined.

LNCaP = assay: Antibody-dependent cell-mediated cytotoxicity, chromium 51 release, human PBMC effectors; assay type: cell-based; settings: target LNCaP (PSMA+); plasma 1:50 or control mAb
Procedure: (§2) An Indian rhesus macaque was immunized with a nucleic acid encoding a human PSMA modified antigen delivered by adenovirus (1e11 V.P. injected intramuscularly) followed by 2 PMED immunizations (8 actuations/immunization, 4 actuations per each right and left side of the lower abdomen) with 8 and 6 week intervals respectively. The animal also received intradermal injections of 3 mg of CpG (PF-03512676) in proximity to each inguinal draining lymph node at the time of the second PMED immunization. The antibody dependent cell-mediated cytotoxicity was determined from the plasma collected from the blood before any immunizations (pre-immune plasma) and 8 days after the last PMED immunization (immune plasma).
(§3) Antibody-dependent cell-mediated cytotoxicity was determined using the standard chromium 51 release assay. Human prostate cancer cell lines LNCaP and PC3 were used as target cells. Freshly isolated human PBMC cells were used as effector cells. Effectors to target cells were set at 30:1. Briefly, for one labeling reaction, 1.5×10^6 target cells in 200 ul were incubated with 200 μCi ^51Cr (37° C., 5% CO2 for 1 hour).

PC3 = assay: as above; assay type: cell-based; settings: target PC3 (PSMA negative); plasma 1:50 or control mAb
Procedure: as §2, §3

## 5′ TCGTCGTTTTGTCGTTTTGTCGTT3′ [CpG 7909]
Human PSMA; group 2: CpG 2 mg mixed with 1 mg Alum
  animals that failed to produce high responses: 4/6
Human PSMA; group 3: CpG 2 mg without alum
  animals that failed to produce high responses: 3/6
Human PSMA; group 4: CpG 2 mg bilateral intramuscular
  animals with modestly higher total response to the PSMA peptides: 3/6
Human PSMA; group 5: CpG 2 mg bilateral intradermal
  animals with modestly higher total response to the PSMA peptides: 2/6
Human PSMA; group 6: 200 μg CpG co-electroporated with the DNA solution into the muscle
  animals with higher net responses: 4/6
Human PSMA; group 6: 200 μg CpG co-electroporated, compared to animals that did not receive CpG (group 1), P<0.05
  response to peptide pool H1: statistically higher response
rHER2 [1]
  magnitude of antigen specific immune responses induced by rHer-2 DNA (IFNγ ELISPOT, p66 peptide): significantly enhanced the magnitude of antigen specific immune responses
[2]; patients with previously treated chronic lymphocytic leukemia
  single intravenous dose well tolerated with no clinical effects and no significant toxicity: up to 1.05 mg/kg
[2]; single dose subcutaneous
  dose limiting toxicity: myalgia and constitutional effects
  maximum tolerated dose (MTD): 0.45 mg/kg
rHER2 [3]
  rHer-2 specific multi-cytokine positive CD8 and CD4 T cell responses: significant increase
Rhesus PSMA
  response to peptide pool R1: statistically higher response

## Rituxan: monoclonal against B cell antigen (CD20), negative control antibody
LNCaP
  Percent specific lysis at E:T of 30:1: 8.99%
PC3
  Percent specific lysis at E:T of 30:1: 0%
